Experiments:
sPLA2G1B = sPLA2G1B (Homo sapiens, UniProt P04054); test: E. coli membrane sPLA2 activity assay ([3H]oleic acid release); assay type: biochemical
Method: The activity of compounds of formula A towards sPLA2G1B can be tested and verified using the E. coli membrane assay described below:
The assay is based on the ability of E. coli membranes to incorporate exogenously added fatty acids such as oleic acid (OA). The use of radiolabelled OA allows to follow the incorporation of this fatty acid into membrane phospholipids of E. Coli and its release upon PLA2-mediated hydrolysis of these membranes. Preincubation of the samples, before the assay, with a specific inhibitor or a neutralizing specific antibody directed against the given sPLA2 can indicate which sPLA2 type is detected.
An overnight culture of E. coli was diluted 1:20 in Luria Broth (LB) medium and incubated at 37° C. for 5 h with vigorous shaking in the presence of 1 mCi/ml [3H]OA (NET 289, NEN, 5 mCi/ml). […]
The reaction was carried out in a 37° C. water bath for 30 min and stopped with stop buffer containing 0.1 M EDTA and 0.2% free-fatty acids BSA. Then the tubes were centrifuged to spin down E. Coli membranes and aliquotes of supernatants were counted to monitor the [3H]OA released from these membranes. […]
The sPLA2 activity (A) is calculated as follows: A=A1−A2/B×100. […]
A is expressed as the % hydrolysis of the total radioactivity incorporated in the E. coli membranes.

sPLA2GIB = sPLA2GIB (Homo sapiens, UniProt P04054); test: sPLA2 specificity panel (Table 1); assay type: biochemical; conditions: panel of secreted PLA2, result in words
sPLA2GIID = biological target: T1, sPLA2GIID (Homo sapiens, UniProt Q9UNK4); test: sPLA2 specificity panel (Table 1); assay type: biochemical; conditions: panel of secreted PLA2, result in words
T1 sequence (Q9UNK4 21-145): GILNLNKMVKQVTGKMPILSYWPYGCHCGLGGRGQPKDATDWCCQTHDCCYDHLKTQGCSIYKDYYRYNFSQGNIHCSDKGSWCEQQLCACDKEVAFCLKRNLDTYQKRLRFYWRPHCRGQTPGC

sPLA2GIIE = biological target: T2, sPLA2GIIE (Homo sapiens, UniProt Q9NZK7); test: sPLA2 specificity panel (Table 1); assay type: biochemical; conditions: panel of secreted PLA2, result in words
T2 sequence (Q9NZK7 20-142): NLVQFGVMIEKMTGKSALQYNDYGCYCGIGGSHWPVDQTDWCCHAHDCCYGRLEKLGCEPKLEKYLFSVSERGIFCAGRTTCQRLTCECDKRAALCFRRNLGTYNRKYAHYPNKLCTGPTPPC

sPLA2GV = biological target: T3, sPLA2GV (Homo sapiens, UniProt P39877); test: sPLA2 specificity panel (Table 1); assay type: biochemical; conditions: panel of secreted PLA2, result in words
T3 sequence (P39877 21-138): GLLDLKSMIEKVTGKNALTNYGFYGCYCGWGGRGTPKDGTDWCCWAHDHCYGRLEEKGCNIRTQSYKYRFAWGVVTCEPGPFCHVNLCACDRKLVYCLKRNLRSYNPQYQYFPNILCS
Text: IC50 values for a panel of secreted Phospholipase A2 (sPLA2) are shown.

sPLA2GIII = biological target: T4, sPLA2GIII (Homo sapiens, UniProt Q9NZ20); test: sPLA2 specificity panel (Table 1); assay type: biochemical; conditions: panel of secreted PLA2, result in words
T4 sequence (Q9NZ20 20-509): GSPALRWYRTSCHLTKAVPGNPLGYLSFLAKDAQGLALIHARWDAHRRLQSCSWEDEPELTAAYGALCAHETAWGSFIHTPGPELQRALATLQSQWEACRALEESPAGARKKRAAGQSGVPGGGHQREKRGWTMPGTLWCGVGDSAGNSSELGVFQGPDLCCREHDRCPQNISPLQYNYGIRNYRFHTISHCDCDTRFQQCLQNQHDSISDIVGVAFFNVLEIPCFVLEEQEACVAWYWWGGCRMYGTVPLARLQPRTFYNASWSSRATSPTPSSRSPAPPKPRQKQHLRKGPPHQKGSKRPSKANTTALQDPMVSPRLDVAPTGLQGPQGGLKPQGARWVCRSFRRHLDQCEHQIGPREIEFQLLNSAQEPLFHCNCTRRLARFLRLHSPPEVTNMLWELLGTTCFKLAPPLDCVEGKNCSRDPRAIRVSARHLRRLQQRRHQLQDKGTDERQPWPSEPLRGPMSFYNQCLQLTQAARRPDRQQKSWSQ

sPLA2GXIIA = biological target: T5, sPLA2GXIIA (Homo sapiens, UniProt Q9BZM1); test: sPLA2 specificity panel (Table 1); assay type: biochemical; conditions: panel of secreted PLA2, result in words
T5 sequence (Q9BZM1 23-189): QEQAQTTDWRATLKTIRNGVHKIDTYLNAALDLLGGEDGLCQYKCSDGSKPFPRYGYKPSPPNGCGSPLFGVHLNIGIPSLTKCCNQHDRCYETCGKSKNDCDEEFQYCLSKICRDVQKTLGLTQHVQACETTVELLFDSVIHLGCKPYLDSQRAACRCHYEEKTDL

Recombinant PLA2G1B = biological target: T6, Recombinant PLA2G1B (Homo sapiens, UniProt P04054); test: Bioassay of IL-7-induced pSTAT5 nuclear translocation in CD4 T cells exposed to recombinant PLA2G1B; assay type: cell-based
T6 construct: made in house; host or cells: E. coli (inclusion bodies, urea-solubilized, renatured, HPLC-purified)
T6 sequence (P04054 23-148): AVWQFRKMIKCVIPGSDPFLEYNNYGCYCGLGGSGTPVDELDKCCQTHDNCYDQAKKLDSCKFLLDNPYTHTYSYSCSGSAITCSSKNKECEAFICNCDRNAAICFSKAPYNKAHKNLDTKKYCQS
Method: sPLA2G1B was produced in E. Coli. Inclusion bodies were solubilized in urea and afterwards renatured. sPLA2G1B was further purified by HPLC. Homogeneity of the preparations was verified by MassSpectrometry (Malditoff). The specific activity of the enzyme was always measured and compared to standard preparations.
(§1) Inhibition of IL-7-induced phosphorylated STAT5 nuclear translocation (NTpSTAT) was measured as follows: VP plasma (5 or 10%) was first incubated with purified HD CD4 T cells (20 min) before stimulation by IL-7 (2 nM, 15 min.). Cells were then plated on polylysine coated glass slides before fixation by PFA (1.5%) and permeabilization by methanol (90% at −20° C.). pSTAT5 was then stained by rabbit anti-STAT5 and labeled with goat anti-rabbit-Atto642. The cells were analyzed by pulsed STED microscopy and the number of nuclei expressing pSTAT5 were counted.
The experiment was repeated twice. From the experimental data we derived the corresponding theoretical curve that gives the IC50.

[1] = biological target: T7, sPLA2G1B contained in plasma of viremic patients (Homo sapiens, UniProt P04054); test: Bioassay of IL-7-induced pSTAT5 nuclear translocation in healthy-donor CD4 T cells exposed to plasma/sera of viremic HIV-infected patients; assay type: cell-based; conditions: for reversion of inhibition of pSTAT5 nuclear translocation: 50 μM compound; for reversal of plasma/sera-induced inhibition of IL-7-induced NT pSTAT5: 50 microM compound
T7 construct: CD4 lymphocytes purified from healthy donors were exposed to sera from viremic HIV-infected patients at 3% dilution; from tissue; host or cells: plasma/sera of viremic HIV-infected patients, applied to CD4 T cells of healthy donors
T7 sequence (P04054 23-148): as above
Method: Five sera were tested and the results are given as the median +/−SD.
Viremic patients (VP) included in the study had been HIV-positive for more than one year. […] All blood samples from VP were drawn at Hôpital Bicêtre or Centre Hospitalier de Gonesse.
as §1
We have already shown that sPLA2G1B contained in plasma of viremic patients through induction of aMMD induces a blockade of IL-7-induced nuclear translocation of phospho STAT5 (NT pSTAT5).
The effects of plasma from various HIV viremic patients (at least 5) were first titrated on the inhibition of IL-7-induced NTpSTAT5. The inhibition is measurable at 1% dilution of the plasma and the effect is maximum at 10% of the plasma. Consequently, in the experiments we used the different plasma at 3% dilution which gives between 30 to 70% of the maximum inhibition. […] The inhibition obtained with the recombinant enzyme reaches a plateau corresponding to a maximum inhibition of around 80%. By contrast, the plateau obtained when the plasma is used is around 90% inhibition, or more (compare data of FIGS. 1 and 2 with data FIG. 3).
In a further study, the plasma from 5 additional HIV-infected patients was tested. […] 100% inhibition of nuclear translocation of pSTAT5 is observed (see FIG. 4).

[2] = recombinant PLA2G1B 75 nanoM, pre-exposed 30 mn to compound, FIG. 1

Chain of sPLA2GIB (P04054 23-148): as above
Chain of sPLA2G1B (P04054 23-148): as above

SMILES: CCc1c(C(=O)C(N)=O)c2c(OCC(=O)O)cccc2n1Cc1ccccc1 [Compound B]
- inhibitory effect on sPLA2G1B activity (sPLA2G1B): particularly strong inhibitory effect
- IC50 sPLA2GIB (sPLA2GIB): significant IC50
- IC50 sPLA2GIID (sPLA2GIID): significant IC50
- IC50 sPLA2GIIE (sPLA2GIIE): significant IC50
- IC50 sPLA2GV (sPLA2GV): significant IC50
- recognition/binding/activity towards sPLA2GIII (group III PLA2) (sPLA2GIII): does not recognize or bind
- recognition/binding/activity towards sPLA2GIII (group III PLA2) (sPLA2GIII; listed as compound B): no activity
- recognition/binding of sPLA2GXIIA (sPLA2GXIIA): does not recognize or bind
- IC50 (Recombinant PLA2G1B): 6.01 µM
- concentration at which inhibitory effects are maximum (Recombinant PLA2G1B; [2]): 8 µM
- concentration at which inhibitory effects begin (Recombinant PLA2G1B; [2]): 5 µM
- plateau, maximum inhibition (Recombinant PLA2G1B; recombinant enzyme in serum free buffer): around 80%
- reversion of inhibition of pSTAT5 nuclear translocation ([1]; 1% plasma, FIG. 4): the reversion is complete
- reversion of inhibition of pSTAT5 nuclear translocation ([1]; 3% plasma, FIG. 4): about 90%
- reversal of plasma/sera-induced inhibition of IL-7-induced NT pSTAT5 ([1]; sera at 1% or 3% dilution, 5 additional patients, FIG. 4): completely reverse this inhibition
- reversal of plasma/sera-induced inhibition of IL-7-induced NT pSTAT5 ([1]; sera at 1% or 3% dilution, 5 additional patients, FIG. 4, listed as compound B): totally reversed this inhibition
- reversal of plasma/sera-induced inhibition of IL-7-induced NT pSTAT5 ([1]; sera at 3% dilution, five sera, FIG. 3): revert the inhibitory activity of the plasma
- reversal of plasma/sera-induced inhibition of IL-7-induced NT pSTAT5 ([1]; sera at 3% dilution, five sera, FIG. 3, listed as compound B): totally reversed this inhibition
- plateau inhibition when plasma is used ([1]; plasma of viremic patients): ≥ 90%

Reference: patent US10894035B2, “Use of indole compounds to stimulate the immune system” (priority 2015, dated 2021)
